Patent US20250263404A1, “AMINOPYRIDINES AS ACTIVATORS OF PI3 KINASE” (UCL Business Ltd, priority 2021, published 2025)

What was measured:
[1] = molecular target: PI3Kα (Homo sapiens, UniProt P42336); test: ADP-Glo in vitro lipid kinase assay, PI3Kα; assay type: biochemical; set-up: Full-length p110α was expressed in a complex with full-length p85α (for biochemistry and HDX-MS); 6xHis followed by TEV protease site (N); made in house; host or cells: Spodoptera frugiperda Sf9 (baculovirus co-infection; plasmids OP831 and OP809); details: for EC50: in vitro PI3Kα activation; for Max. activity relative to pY ctrl: relative to pY control
Chain of PI3Kα (P42336 whole entry, the tested form may be a part): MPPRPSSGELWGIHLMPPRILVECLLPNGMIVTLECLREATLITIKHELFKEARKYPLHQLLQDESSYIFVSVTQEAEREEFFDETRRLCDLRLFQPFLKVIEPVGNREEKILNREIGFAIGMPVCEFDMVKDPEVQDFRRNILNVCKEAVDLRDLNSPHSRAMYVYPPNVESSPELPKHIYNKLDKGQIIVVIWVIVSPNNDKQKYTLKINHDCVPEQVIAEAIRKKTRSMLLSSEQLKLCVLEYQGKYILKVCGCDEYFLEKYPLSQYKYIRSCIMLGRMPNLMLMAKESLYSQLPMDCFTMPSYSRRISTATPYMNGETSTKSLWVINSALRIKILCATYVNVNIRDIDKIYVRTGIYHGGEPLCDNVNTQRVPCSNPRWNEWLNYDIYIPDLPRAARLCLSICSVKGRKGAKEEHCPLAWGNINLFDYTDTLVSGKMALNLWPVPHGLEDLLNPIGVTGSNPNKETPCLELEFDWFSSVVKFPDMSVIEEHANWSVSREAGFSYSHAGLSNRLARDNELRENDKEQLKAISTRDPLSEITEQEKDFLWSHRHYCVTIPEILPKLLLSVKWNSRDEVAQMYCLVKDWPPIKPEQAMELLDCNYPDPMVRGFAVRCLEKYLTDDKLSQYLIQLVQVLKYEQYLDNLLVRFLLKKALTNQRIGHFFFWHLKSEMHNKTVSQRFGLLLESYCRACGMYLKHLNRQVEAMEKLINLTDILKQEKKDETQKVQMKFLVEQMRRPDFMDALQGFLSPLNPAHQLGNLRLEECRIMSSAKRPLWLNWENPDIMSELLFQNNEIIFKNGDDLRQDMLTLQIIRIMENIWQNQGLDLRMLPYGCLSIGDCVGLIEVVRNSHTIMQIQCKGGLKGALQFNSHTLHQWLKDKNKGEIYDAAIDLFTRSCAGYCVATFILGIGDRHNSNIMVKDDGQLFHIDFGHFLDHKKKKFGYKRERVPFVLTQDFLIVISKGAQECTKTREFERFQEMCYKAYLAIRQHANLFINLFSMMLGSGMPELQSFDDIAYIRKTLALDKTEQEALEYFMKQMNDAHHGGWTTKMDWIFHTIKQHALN
Chain of PI3Kα (P27986 whole entry partner, the tested form may be a part): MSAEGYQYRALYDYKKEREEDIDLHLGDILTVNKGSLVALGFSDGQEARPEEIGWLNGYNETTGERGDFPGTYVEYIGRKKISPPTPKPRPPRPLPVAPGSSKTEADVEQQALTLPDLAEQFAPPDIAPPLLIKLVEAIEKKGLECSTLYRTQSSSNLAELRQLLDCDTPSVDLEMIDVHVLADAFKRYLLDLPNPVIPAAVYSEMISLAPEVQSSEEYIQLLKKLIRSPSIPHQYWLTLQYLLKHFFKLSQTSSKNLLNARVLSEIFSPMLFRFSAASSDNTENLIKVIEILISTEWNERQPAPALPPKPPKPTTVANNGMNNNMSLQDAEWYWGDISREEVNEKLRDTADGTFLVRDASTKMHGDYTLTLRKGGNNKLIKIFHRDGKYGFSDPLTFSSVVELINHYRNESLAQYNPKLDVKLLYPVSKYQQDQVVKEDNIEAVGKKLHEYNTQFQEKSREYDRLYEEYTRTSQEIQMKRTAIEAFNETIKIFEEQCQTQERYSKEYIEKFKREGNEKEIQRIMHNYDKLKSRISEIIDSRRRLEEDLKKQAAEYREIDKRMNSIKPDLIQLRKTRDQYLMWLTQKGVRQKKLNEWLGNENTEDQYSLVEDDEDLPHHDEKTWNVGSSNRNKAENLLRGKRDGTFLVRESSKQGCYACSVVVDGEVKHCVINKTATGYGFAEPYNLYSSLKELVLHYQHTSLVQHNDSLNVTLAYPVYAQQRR
Description: The effect of 1938 on the in vitro lipid kinase activity of p85α in complex with p110α, p110β or p110δ (further referred to as PI3Kα, PI3Kβ and PI3Kδ) was tested. As a positive control, a bis-phosphorylated phosphopeptide (a PDGF-receptor-derived peptide phosphorylated on Tyr-740 and Tyr-751, hereafter referred to as pY peptide) was used to mimic engagement of the p85α SH2 domains with tyrosine-phosphorylated peptides in membrane-bound receptors and adaptor proteins, known to activate the PI3Kα complex.
Kinase reactions were performed with ADP-Glo kinase assay kit (Promega Corporation). The enzyme, substrate and compounds were diluted in reaction buffer (20 mM HEPES, 50 mM NaCl, 50 mM KCl, 3 mM MgCl2, 1 mM EGTA, 1 mM TCEP, pH 7.4). Final concentrations of PI3Kα and PI3Kδ used were 25 nM and 50 nM for PI3Kβ. Liposomes (5% brain PI(4,5)P2, 20% brain phosphatidylserine, 45% brain phosphatidylethanolamine, 15% brain phosphatidylcholine, 10% cholesterol, 5% sphingomyelin (Avanti Polar Lipids)) were used at a final concentration of 1 mg/ml.
For compound profiling, the reaction mixture contained 2 μl PI3K enzyme, 2 μl compound and/or pY and 2 μl of liposome substrate mixed with ATP. ATP was used at a final concentration of 500 μM for PI3Kα and PI3Kβ and at 200 μM for PI3Kδ, unless otherwise stated. The final DMSO concentration in the assay was 1%. The experiments were performed at room temperature for 3 h using 384 white-polystyrene plates (Corning #3824) before addition of 6 μl of ADP-Glo R1 to terminate the reaction. The plate was incubated for 45 min, followed by addition of 12 μl of ADP-Glo R2 and incubated further for 60 min in the dark. Luminescence was read using a Sense (Hidex) plate reader. […] All analyses were performed using GraphPad Prism 7.
For characterisation of the effects of 1938 on in vitro PI3K enzymology, all reactions were performed at room temperature with 384 white-polystyrene plates (Corning #3574). The final DMSO concentration in the assay was between 0.5%-1.8%. The reaction mixture contained 2 μl PI3K enzyme, 2 μl compound and/or pY and 2 μl of liposome substrate mixed with ATP. ATP was used at a final concentration of 200 μM, unless otherwise stated. The enzyme and compounds were pre-incubated for 10 min prior to addition of substrate. The reaction was allowed to proceed for 45 min at room temperature, before addition of 6 μl of ADP-Glo R1 to terminate the reaction. The plate was incubated for 60 min, followed by addition of 12 μl of ADP-Glo R2 and incubated further for 60 min in the dark. For enzyme kinetic calculations, data was expressed as velocity (pmol of ADP generated/sec). ADP-ATP standard curves were performed according to the manufacturer's instructions, and all analyses were performed using GraphPad Prism 8.

[2] = Solubility (comparison in words); assay type: physicochemical

Row | activity compared with 1938 (in words) [1] | EC50 [1] [µM] | Max. activity relative to 1938 [1] [%] | Max. activity relative to pY ctrl [1] [%] | solubility compared with 1938 (in words) [2] | reduction in activity ([1]; structure-activity comparison with 1938) | Structure (SMILES)
1 | activities comparable with 1938 | 56 ± 24 | 102 | 408 ± 110 |  |  | COc1cc(N2CCN(C)CC2)ccc1Nc1cc(Nc2cccc3c2N(C(C)=O)CC3)ccn1 [Example 1889]
2 |  |  | 4 | 16 ± 8 |  |  | CCN1CCN(c2ccc(Nc3nccc(Nc4cccc5c4N(C(C)=O)CC5)n3)cc2)CC1 [Example 2152]

More lines, now with the values behind:

Row | Structure (SMILES) | activity compared with 1938 (in words) [1] | EC50 [1] [µM] | Max. activity relative to 1938 [1] [%] | Max. activity relative to pY ctrl [1] [%] | solubility compared with 1938 (in words) [2] | reduction in activity ([1]; structure-activity comparison with 1938)
3 | COc1cc(Nc2cc(Nc3cccc4c3N(C(C)=O)CC4)ccn2)cc(OC)c1OC [Example 1887] | activities comparable with 1938 | 36 ± 5 | 80 | 318 ± 68 |  | 
4 | CC(=O)N1CCc2cccc(Nc3ccnc(Nc4ccccc4)c3)c21 [Example 2016] |  |  | 9 | 36 ± 8 | less soluble than 1938 | more than 90%
5 | CCN1CCN(c2ccc(Nc3cc(Nc4ccncn4)ccn3)cc2)CC1 [Example 2106] |  |  | 4 | 14 ± 13 |  | 
